Experiments:
in vivo [1] = conditions: Sprague-Dawley, rat, po, 10 mg/kg
in vivo [2] = conditions: Sprague-Dawley, rat, po, 10 mg/kg; remark: listed apart in the source
in vivo [3] = conditions: Sprague-Dawley, rat, iv, 1 mg/kg
in vivo [4] = conditions: Sprague-Dawley, rat, po, 10 mg/kg; remark: listed apart in the source
in vivo [5] = conditions: Sprague-Dawley, rat, iv, 1 mg/kg; remark: listed apart in the source
in vivo [6] = conditions: Sprague-Dawley, rat, po, 10 mg/kg; remark: listed apart in the source
in vivo [7] = conditions: Sprague-Dawley, rat, po, 10 mg/kg; remark: listed apart in the source
in vivo [8] = conditions: Sprague-Dawley, rat, iv, 1 mg/kg; remark: listed apart in the source
in vivo [9] = conditions: Sprague-Dawley, rat, iv, 1 mg/kg; remark: listed apart in the source
in vivo [10] = conditions: Sprague-Dawley, rat, iv, 1 mg/kg; remark: listed apart in the source
in vivo [11] = conditions: Sprague-Dawley, rat, po, 10 mg/kg; remark: listed apart in the source
in vivo [12] = conditions: Sprague-Dawley, rat, po, 10 mg/kg; remark: listed apart in the source
in vivo [13] = conditions: Sprague-Dawley, rat, po, 10 mg/kg; remark: listed apart in the source
in vivo [14] = conditions: Sprague-Dawley, rat, iv, 1 mg/kg; remark: listed apart in the source
in vivo [15] = conditions: Sprague-Dawley, rat, iv, 1 mg/kg; remark: listed apart in the source

## CC#CC(=O)N1CCC(c2cnn3c(C(N)=O)c(-c4ccc(Oc5ccccc5)cc4)[nH]c23)CC1
In vivo [1]
  bioavailability at 24 h: 10.8%
In vivo [2]
  Tmax at 24 h: 49.8 min
In vivo [3]
  clearance at 12 h: 85 mL/min/kg
In vivo [4]
  CL/F at 24 h: 786 mL/min/kg
In vivo [5]
  MRT last at 12 h: 2.19 h
In vivo [6]
  AUC(0-inf) at 24 h: 213 ng·h/mL
In vivo [7]
  MRT last at 24 h: 10.2 h
In vivo [8]
  half-life at 12 h: 141 min
In vivo [9]
  Tmax at 12 h: 1.98 min
In vivo [10]
  Cmax at 12 h: 537 ng/mL
In vivo [11]
  Cmax at 24 h: 16 ng/mL
In vivo [12]
  AUC(0-t) at 24 h: 167 ng·h/mL
In vivo [13]
  half-life at 24 h: 359 min
In vivo [14]
  AUC(0-inf) at 12 h: 198 ng·h/mL
In vivo [15]
  AUC(0-t) at 12 h: 180 ng·h/mL

Reference: ChEMBL document CHEMBL4842353, “Structure-activity relationship investigation for imidazopyrazole-3-carboxamide derivatives as novel selective inhibitors of Bruton's tyrosine kinase” (Eur J Med Chem, 2021)
